The IC50 is the point on the concentration scale where inhibition reaches its midpoint. A lower IC50 goes with inhibition by little substance. By Ki is commonly meant a dissociation constant, usually derived from enzyme kinetics or from competition with a known ligand.

These results are taken from ChEMBL document CHEMBL3217751, “Potent inhibition of Ca2+-dependent activation of calpain-1 by novel mercaptoacrylates” (Medchemcomm, 2012).

The target of test [1] is T1, Calpain-1 catalytic subunit (Sus scrofa, UniProt P35750).
T1 sequence (P35750 whole entry): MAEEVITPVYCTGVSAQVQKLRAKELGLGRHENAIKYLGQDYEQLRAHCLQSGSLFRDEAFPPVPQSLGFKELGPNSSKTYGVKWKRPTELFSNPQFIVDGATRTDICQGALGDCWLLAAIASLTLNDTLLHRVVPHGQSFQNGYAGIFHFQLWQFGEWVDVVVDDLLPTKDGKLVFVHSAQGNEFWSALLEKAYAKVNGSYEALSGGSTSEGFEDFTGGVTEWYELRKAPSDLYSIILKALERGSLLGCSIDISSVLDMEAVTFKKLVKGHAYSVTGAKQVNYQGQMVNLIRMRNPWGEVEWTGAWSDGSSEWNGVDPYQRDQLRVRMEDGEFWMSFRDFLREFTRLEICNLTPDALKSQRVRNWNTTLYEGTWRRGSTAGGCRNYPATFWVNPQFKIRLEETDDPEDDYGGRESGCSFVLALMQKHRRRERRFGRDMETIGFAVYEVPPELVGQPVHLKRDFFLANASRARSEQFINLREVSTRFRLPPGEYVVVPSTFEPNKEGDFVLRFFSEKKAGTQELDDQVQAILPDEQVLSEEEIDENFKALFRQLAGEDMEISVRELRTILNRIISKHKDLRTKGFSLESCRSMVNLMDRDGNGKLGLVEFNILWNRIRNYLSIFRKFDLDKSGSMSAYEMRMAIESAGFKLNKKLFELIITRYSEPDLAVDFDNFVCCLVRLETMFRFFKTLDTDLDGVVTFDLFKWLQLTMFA
The experiment in a line: Inhibition of Ca2+-dependent activation of porcine calpain-1 using SucLY-AMC as substrate.

Test [2] addresses T1, Calpain-1 catalytic subunit. Nature of the test: Inhibition of Ca2+-dependent activation of porcine calpain-1 using H-K(FAM)-EVYGMMK(DABCYL)-OH as substrate by FRET assay.
Test [3] addresses T2, Calpain-1 catalytic subunit (Homo sapiens) (UniProt P07384).
T2 sequence (whole entry): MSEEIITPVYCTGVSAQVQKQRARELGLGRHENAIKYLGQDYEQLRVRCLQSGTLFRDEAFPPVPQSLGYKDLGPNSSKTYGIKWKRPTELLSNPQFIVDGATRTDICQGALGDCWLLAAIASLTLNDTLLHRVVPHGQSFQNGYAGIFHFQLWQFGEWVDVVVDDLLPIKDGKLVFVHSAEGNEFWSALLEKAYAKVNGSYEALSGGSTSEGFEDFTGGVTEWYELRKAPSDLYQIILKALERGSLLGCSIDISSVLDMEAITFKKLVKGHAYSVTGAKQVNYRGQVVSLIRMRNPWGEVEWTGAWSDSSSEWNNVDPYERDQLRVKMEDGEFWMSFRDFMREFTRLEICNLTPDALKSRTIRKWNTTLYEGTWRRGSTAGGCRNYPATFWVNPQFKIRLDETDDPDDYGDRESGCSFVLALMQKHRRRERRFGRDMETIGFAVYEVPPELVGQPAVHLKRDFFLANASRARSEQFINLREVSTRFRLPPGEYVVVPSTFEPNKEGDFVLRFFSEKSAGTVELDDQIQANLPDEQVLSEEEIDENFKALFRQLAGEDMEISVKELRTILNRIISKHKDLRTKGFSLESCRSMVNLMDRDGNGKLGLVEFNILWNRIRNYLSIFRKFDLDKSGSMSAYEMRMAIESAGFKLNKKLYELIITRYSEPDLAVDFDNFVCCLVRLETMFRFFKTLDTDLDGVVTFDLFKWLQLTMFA
The experiment in a line: Inhibition of calpain-1 in human neutrophils assessed as cell spreading at 10 uM.

In test [4] the target is T3, Calpain-1 catalytic subunit (Homo sapiens, UniProt P07384).
T3 sequence (P07384 whole entry): T2 sequence (whole entry)
Nature of the test: Inhibition of human erythrocytes mu-calpain using SLLVY-AMC as substrate after 60 mins.

For test [5], the target named is T4, Calpain-2 catalytic subunit (Homo sapiens, UniProt P17655).
T4 sequence (P17655 whole entry): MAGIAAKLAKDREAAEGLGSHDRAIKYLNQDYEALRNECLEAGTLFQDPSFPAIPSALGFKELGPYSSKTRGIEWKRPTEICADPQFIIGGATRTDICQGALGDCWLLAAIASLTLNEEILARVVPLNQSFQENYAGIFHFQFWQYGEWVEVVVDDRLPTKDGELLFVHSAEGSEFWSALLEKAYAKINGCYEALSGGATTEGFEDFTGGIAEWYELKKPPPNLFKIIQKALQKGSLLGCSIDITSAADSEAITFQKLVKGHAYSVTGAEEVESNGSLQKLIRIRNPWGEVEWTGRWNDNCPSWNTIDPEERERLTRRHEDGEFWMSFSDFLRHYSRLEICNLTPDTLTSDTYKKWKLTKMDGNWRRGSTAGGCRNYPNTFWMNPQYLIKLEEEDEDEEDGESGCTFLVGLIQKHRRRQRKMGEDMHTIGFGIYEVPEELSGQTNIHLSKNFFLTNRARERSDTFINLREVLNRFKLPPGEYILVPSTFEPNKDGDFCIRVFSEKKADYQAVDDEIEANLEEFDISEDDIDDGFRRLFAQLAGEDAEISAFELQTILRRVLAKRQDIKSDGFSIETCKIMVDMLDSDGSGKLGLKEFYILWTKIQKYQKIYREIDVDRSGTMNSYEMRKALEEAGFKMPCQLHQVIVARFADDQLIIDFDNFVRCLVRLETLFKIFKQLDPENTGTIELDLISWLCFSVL
The experiment in a line: Inhibition of calpain-2 (unknown origin).

Active and inactive are the calls of the source. The calls are words filed in the database; no cut-off is given here.

For `O=C(O)/C(S)=C/c1cccc(Br)c1`, the results for the IC50 in test [1] and in test [2] were 8400 nM and 4000 nM, respectively.
For `O=C(O)/C(S)=C/c1c[nH]c2ccc(Br)cc12`, the IC50 in test [1] was found to be 20 nM; in test [2], 6 nM.
For `O=C(O)/C(S)=C/c1c[nH]c2cccc(Cl)c12` the same measures were 140 nM and 20 nM.
On the same counts, the results for `O=C(O)/C(S)=C/c1c[nH]c2cccc(F)c12` are 300 nM and 10 nM.
As for `O=C(O)/C(S)=C/c1c[nH]c2cc(Cl)ccc12`, the IC50 in test [1] worked out at 100 nM; in test [2] it was 210 nM. For the same molecule, the inhibition entry in test [3] is “Active”.
For the molecule `O=C(O)/C(S)=C/c1ccc(Cl)cc1`, the IC50 in test [1] stood at 15000 nM; in test [2], 2600 nM.
As to `O=C(O)/C(S)=C/c1ccc(F)cc1`, the IC50 came out at 5600 nM in test [1] and 6900 nM in test [2].
For `O=C(O)/C(S)=C/c1c[nH]c2c(Cl)cccc12` the same measures were 90 nM and 10 nM.
On the same counts, the results for `O=C(O)/C(S)=C/c1c[nH]c2c(Br)cccc12` are 70 nM and 2 nM.
On the same counts, the results for `O=C(O)/C(S)=C/c1c[nH]c2ccc(I)cc12` are 90 nM and 100 nM.
With `O=C(O)/C(S)=C/c1c[nH]c2cc(Br)ccc12`, the IC50 in test [1] was 90 nM; in test [2] it was 7 nM. The inhibition result in test [3] is “Active”.
On to `O=C(O)/C(S)=C/c1ccccc1Br`, for which the values for the IC50 in test [1] and in test [2] were 9100 nM and 21000 nM, respectively.
On the same counts, the results for `O=C(O)/C(S)=C/c1c[nH]c2c(I)cccc12` are 220 nM and 90 nM.
For `O=C(O)/C(S)=C/c1ccccc1F` the same measures were 23200 nM and 21900 nM.
For `O=C(O)/C(S)=C/c1cccc(Cl)c1` the same measures were 13100 nM and 4200 nM.
`O=C(O)/C(S)=C/c1ccccc1Cl`: the results for the IC50 in test [1] and in test [2] were 20700 nM and 11900 nM, respectively.
On the same counts, the results for `O=C(O)/C(S)=C/c1c[nH]c2c(F)cccc12` are 110 nM and 120 nM.
For `O=C(O)/C(S)=C/c1c[nH]c2cc(I)ccc12` the same measures were 300 nM and 170 nM.
On the same counts, the results for `O=C(O)/C(S)=C/c1c[nH]c2cccc(Br)c12` are 100 nM and 6 nM.
As for `O=C(O)/C(S)=C/c1ccc(I)cc1`, the IC50 was 5200 nM in test [1] and 2200 nM in test [2]. Also, the Ki came to 210 nM in test [4] and 370 nM in test [5].
On the same counts, the results for `O=C(O)/C(S)=C/c1c[nH]c2ccc(F)cc12` are 930 nM, 800 nM, 260 nM and 5330 nM.
For `O=C(O)/C(S)=C/c1cccc(F)c1`, the results for the half-maximal inhibitory concentration (IC50) in test [1] and in test [2] were 31500 nM and 19000 nM, respectively.
For `O=C(O)/C(S)=C/c1cccc(I)c1` the same measures were 23900 nM and 4300 nM.
Turning to `O=C(O)/C(S)=C/c1c[nH]c2ccc(Cl)cc12`, the IC50 amounted to 50 nM in test [1] and 250 nM in test [2].
`O=C(O)/C(S)=C/c1c[nH]c2cc(F)ccc12`: the IC50 in test [1] turned out to be 300 nM; in test [2], 10 nM. In addition, in test [3], the inhibition entry was “Active”.
Consider `O=C(O)/C(S)=C/c1ccc(Br)cc1`, for which the IC50 in test [1] and in test [2] was 1500 nM throughout.
